Data as given in publication PMC5356834 (Oncotarget, 2016).

Tests used:
TOV-21G cells [1] = test: Scoring of interphase cells with abnormal nuclei; type: cell-based; settings: 48 hours
From the text: (§1) (B) The frequency of mitotic cells with multipolar spindles was scored in at least 50 cells from each treatment condition. Shown is the mean ± SD of three independent experiments. […] Microtubules and DNA were visualized by staining with anti-α-tubulin antibody (green) and DAPI (blue), respectively. The frequency of interphase cells with visually abnormal nuclei, including satellite nuclei and multinucleation, was scored in at least 100 cells per treatment condition. Shown is the mean ± SD of three independent experiments.
(§2) Cells grown on glass coverslips were fixed in 4% paraformaldehyde for 15 min, followed by permeabilization with 0.5% Triton X-100 in PBS for 5 min. The cells were then incubated with α-tubulin (DM1A) mouse monoclonal antibody (Cell Signaling Technology, Danvers, MA), γ-tubulin (GTU-88) mouse monoclonal antibody (Sigma-Aldrich, St. Louis, MO) or NuMA (GT3611) mouse monoclonal antibody (Thermo Scientific, Rockford, IL) followed by Alexa Fluor 488 or 546 conjugated secondary antibodies (Invitrogen, Carlsbad, CA). Images were obtained with a Zeiss AX10 microscope (Carl Zeiss Micro-Imaging, Inc., Jena, Germany) equipped with a 20 X, 40X, or 63 X objective and standard filter set.

[2] = system: TOV-21G ovarian cancer cells; test: Multipolar mitotic spindle scoring by α-tubulin staining; type: cell-based; settings: 24 hours; for frequency of multipolar spindle formation, combination with paclitaxel: HDAC6 inhibitor 2 μM plus paclitaxel 2 nM; for frequency of multipolar mitotic spindle formation, single agent: paclitaxel 2 nM, ACY-241 2 μM, ACY-1215 2 μM, control 3.1%
Experimental: as §2
for α-tubulin (red) and DNA (blue) identified mitotic cells with multipolar spindles. (B) The frequency of multipolar spindle formation in
M phase cells was scored in at least 50 cells per treatment condition.
(§3) (1 picture or pasted object on this page, not shown here)

[3] = system: α-tubulin acetylation in A2780 and MDA-MB-231 cells; test: Immunoblotting of acetylated α-tubulin after combination treatment; type: cell-based; settings: 48 hours
Experimental: A2780 and MDA-MB-231 cells were treated for 48 hours with the indicated concentrations of each drug and whole cell protein lysates were subjected to immunoblotting using antibodies for acetylated-α-tubulin and β-actin.
(§4) Lysates were sonicated 2 to 3 times for 30 sec in medium (Diagenode, Bioruptor 300).
(§5) For western blot analysis, equal amounts of protein were loaded and size separated on Bolt™ 4 to 12% Bis-Tris Plus Gels. Proteins were subsequently transferred onto polyvinylidene difluoride (PVDF) membrane using an iBlot® 2 Dry Blotting System (Invitrogen). Immunoblotting was carried out according to standard protocols with antibodies against histone H3 acetyl-lysine 56 (abcam), histone-H4, pantropic (Millipore), acetyl-α-tubulin (Sigma); and β-Actin (Sigma). Antigen-antibody complexes were detected using secondary antibodies conjugated with horseradish […] (HRP) and visualized using enhanced chemiluminescence (GE Healthcare; Piscataway, NJ).
For WES analysis, lysates were separated by an automated capillary-based electrophoresis system (WES, ProteinSimple, San Jose, CA). All procedures were performed according to the manufacturer's recommendations using the supplied reagents. […] The resulting data were analyzed using Compass software (ProteinSimple).

MiaPaCa-2 xenografts = test: MiaPaCa-2 pancreatic cancer xenograft; type: in vivo, mice; settings: MiaPaCa-2 xenograft, HDAC6 inhibitor 50 mg/kg IP plus paclitaxel 10 mg/kg
[4] = system: MDA-MB-231 breast cancer cells; test: IncuCyte Caspase 3/7 apoptosis assay; type: cell-based; settings: for apoptosis (Caspase 3/7): MDA-MB-231, single agent
TOV-21G cells [5] = test: Multipolar mitotic spindle scoring by NuMA and α-tubulin co-staining; type: cell-based; settings: 24 hours
From the text: as §1, §2
(A) Immunostaining for α-tubulin (green), NuMA
(red), and DNA (blue). (B) The frequency of mitotic cells with multipolar spindles was scored in at least 100 cells from each treatment
as §3

[6] = system: α-tubulin acetylation in A2780 ovarian cancer cells; test: Immunoblotting of acetylated α-tubulin in A2780 cells; type: cell-based
Experimental: as §4, §5

[7] = system: histone H3 acetylation in A2780 ovarian cancer cells; test: Immunoblotting of acetylated histone H3 (H3K56) in A2780 cells; type: cell-based; settings: 24 hour treatment
Experimental: as §4, §5

[8] = system: A2780, TOV-21G and MiaPaCa-2 cells; test: EdU / FxCycle flow cytometry cell cycle assessment in multiple cell lines (Figure 4B, 4C); type: cell-based
[9] = Tolerability and body weight in xenograft-bearing mice; settings: for body weight change: MiaPaCa-2 model, combination treatment with paclitaxel; for tolerability in mice: dosed as a single agent and in combination with paclitaxel
[10] = system: MDA-MB-231 breast cancer cells; test: IncuCyte live-cell proliferation assay; type: cell-based; settings: for proliferation (absolute cell number): MDA-MB-231, single agent
TOV-21G cells [11] = test: Live cell time-lapse imaging of cell division; type: cell-based; settings: ACY-241 2 μM plus paclitaxel 5 nM, up to 48 hours
Experimental: Time-lapse imaging was obtained on a Zeiss AX10 live-cell microscope coupled with a CO2 and temperature-maintenance system, and a time-lapse recording system supporting multi-location time series acquisition (SlideBook6 x64, Intelligent Imaging Innovations, Inc., Ringsby, CT). After staining with 10 nM Hoechst33342, TOV-21G cells were incubated in 10% CO2 at 37°C and time-lapse images were acquired at 2 min intervals up to 48 hours with a CoolSNAP HQ2 CCD camera (Photometrics, Tucson, AZ). […]
monitored by live cell time-lapse microscopy. (A) The number of observed mitotic cells, unresolved mitoses, and frequency of bipolar and multipolar division from resolved mitosis were assessed. (B) Fluorescent and matched phase-contrast time-lapse images of representative mitoses in TOV-21G cells treated with the drug combination. Numbers show elapsed time after drug treatment (hour:minute:second), the color of circles differentiates individual cells being monitored, and dashed circles indicate observation of cell death. Panels labeled with lower case letters (a-e) identify timepoints with matched phase contrast images below (a’-e’).
as §3

[12] = system: phospho-histone H3 (pH3) positive cells; test: Phospho-histone H3 / DNA content flow cytometry for M phase cells; type: cell-based; settings: for pH3 positive cells (M phase): low dose 6 nM
Experimental: arrest. (A) Dual parameter phospho-histone H3 (y axis, M phase cells) and FxCycle Far Red (x axis, DNA content) staining indicate the […]
High dose treatment of paclitaxel (100 nM) served as a positive control for M phase arrest. (B) Phase contrast micrographs were taken at the indicated time points after treatment of the samples in panel (A).
as §3

[13] = system: A2780, TOV-21G and MDA-MB-231 cells; test: MTS cell viability assay; type: cell-based; settings: 72 h, range over A2780, TOV-21G and MDA-MB-231 cells, 3 days, read-out: single agent viability IC50
Experimental: CellTiter 96® AQueous One Solution; Promega; Madison, WI, USA) dye absorbance. Cells (A2780, TOV-21G, MDA-MB-231) from 72 hour cultures were pulsed with 5 μL of CellTiter 96® AQueous One Solution in each well. The 384-well plates were incubated at 37°C for 5 hours, and absorbance was read in triplicate at a wavelength of 490 nm (with background correction using readings at 650 nm) on a spectrophotometer (Molecular Devices Corp.; Sunnyvale, CA, USA). […] The IC50 for each agent in each cell line is indicated in the legend of each graph. Real-time kinetic trace graphs of (C) cell proliferation and (D) induction of apoptosis were generated in the MDA- MB-231 breast cancer cell line. […] The mean and SEM of three replicate samples are shown. […]

A2780 xenografts = test: A2780 ovarian cancer xenograft; type: in vivo, mice; settings: HDAC6 inhibitor 50 mg/kg IP plus paclitaxel 10 mg/kg
TOV-21G xenografts = test: TOV-21G ovarian cancer xenograft; type: in vivo, mice; settings: TOV-21G xenograft, HDAC6 inhibitor 50 mg/kg IP plus paclitaxel 10 mg/kg
[14] = MDA-MB-231, relative to either single agent

In the case of `O=C(CCCCCCNC(=O)c1cnc(N(c2ccccc2)c2ccccc2Cl)nc1)NO` [ACY-241], the “frequency of cells with visually abnormal nuclei, combination with paclitaxel” value (TOV-21G cells [1]) is reported as “significantly increased the frequency of cells with visually abnormal nuclei”, the “frequency of multipolar spindle formation, combination with paclitaxel” value [2] is reported as 38.6% and the “frequency of multipolar mitotic spindle formation, single agent” value [2] is reported as 10.7%. The “α-tubulin hyperacetylation, combination with paclitaxel” value [3] was “synergistic increase in α-tubulin hyperacetylation”, the “suppression of tumor growth, combination with paclitaxel” value (from here on “suppression of tumor growth”) (MiaPaCa-2 xenografts) was “similarly significant efficacy” and the “apoptosis, combination with paclitaxel” value [4, 14] was “enhanced apoptosis”. The “apoptosis (Caspase 3/7)” value ([4]; 10 μM) was “significant induction of apoptosis”, the “apoptosis (Caspase 3/7)” value ([4]; doses up to 3 μM, 96 hours) was “without inducing apoptosis” and the “frequency of multipolar spindle formation, combination with paclitaxel” value (TOV-21G cells [5]; NuMA/α-tubulin co-staining, p = 0.0047 vs paclitaxel) was 51.5%. The “frequency of multipolar spindle formation, combination with epothilone” value (TOV-21G cells [5]; epothilone 0.5 nM plus ACY-241) was 51.3%, the “hyperacetylation of α-tubulin” value ([6]; 24 hour treatment, 300 nM) was “increased hyperacetylation of α-tubulin” and the “α-tubulin hyperacetylation, dose dependence” value ([6]; range of concentrations, 24 hours) was “dose-dependent increase in α-tubulin hyperacetylation”. For the same molecule, the “doses at which hyperacetylation of histone H3 was observed” value [7] was “above 1 μM”, the “percentage of cells in S phase, combination with paclitaxel” value ([8]; A2780 and TOV-21G (3 days), MiaPaCa-2 (5 days)) was “significantly reduced the percentage of cells in S phase” and the “induction of cell death (SubG1), combination with paclitaxel” value ([8]; relative to control or single agent treatment) was “significantly increased induction of cell death”. For the same molecule, the body weight change [9] was “did not result in body weight loss”, the tolerability in mice [9] was “well tolerated” and the “proliferation, combination with paclitaxel” value [10, 14] was “significantly reduced proliferation”. For the same molecule, the “proliferation (absolute cell number)” value ([10]; 10 μM) was “completely suppressed proliferation”, the “proliferation (absolute cell number)” value ([10]; doses up to 3 μM, 96 hours) was “modestly reduced proliferation” and the “frequency of multipolar cell division, combination with paclitaxel” value (TOV-21G cells [11]) was “increased the frequency of multipolar cell division compared to each single agent”. For the same molecule, the M phase arrest ([12]; 2 μM, single agent or in combination with paclitaxel) was “did not significantly increase M phase arrest” and the IC50 [13] was 4600 to 6100 nM.

In the case of `C/C(=C\c1csc(C)n1)[C@@H]1C[C@@H]2O[C@]2(C)CCC[C@H](C)[C@H](O)[C@@H](C)C(=O)C(C)(C)[C@@H](O)CC(=O)O1` [epothilone, epothilone B, reference compound], the “frequency of multipolar mitotic spindle formation, single agent” value (TOV-21G cells [5]; 0.5 nM, control 0.9%) is reported as 29.9%.

In the case of `CC(=O)O[C@H]1C(=O)[C@@]2(C)[C@H]([C@H](OC(=O)c3ccccc3)[C@]3(O)C[C@H](OC(=O)[C@H](O)[C@@H](NC(=O)c4ccccc4)c4ccccc4)C(C)=C1C3(C)C)[C@]1(OC(C)=O)CO[C@@H]1C[C@@H]2O` [paclitaxel, reference compound], the “frequency of multipolar mitotic spindle formation, single agent” value [2] is reported as 15.2%, the “apoptosis (Caspase 3/7)” value ([4]; up to 2 nM) is reported as “did induce apoptosis after longer duration of exposure” and the “frequency of multipolar spindle formation, single agent” value (TOV-21G cells [5]; NuMA/α-tubulin co-staining (Figure 6B)) is reported as 30.4%. The “proliferation (absolute cell number)” value ([10]; up to 2 nM) was “modestly reduced cell proliferation”, the “cell cycle arrest at M phase” value ([12]; high concentration 100 nM, 8 to 24 hours) was “induced cell cycle arrest at mitosis (M) phase” and the “pH3 positive cells (M phase)” value ([12]; 8 hours, DMSO […]) was 14%. For the same molecule, the “pH3 positive cells (M phase)” value ([12]; 24 hours) was 4.1% and the IC50 [13] was 2.3 to 3.2 nM.

With `O=C(CCCCCCNC(=O)c1cnc(N(c2ccccc2)c2ccccc2)nc1)NO` [ricolinostat] the “suppression of tumor growth” value (A2780 xenografts) was “significantly greater suppression of tumor growth relative to either single agent”, the “suppression of tumor growth” value (TOV-21G xenografts) was “significantly greater suppression of tumor growth relative to either single agent” and the “frequency of multipolar spindle formation, combination with paclitaxel” value [2] was 41.3%. For the same molecule, the “frequency of multipolar mitotic spindle formation, single agent” value [2] was 12.6%, the “suppression of tumor growth” value (MiaPaCa-2 xenografts) was “significantly greater suppression of tumor growth relative to either single agent” and the body weight change [9] was “did not result in body weight loss”. For the same molecule, the tolerability in mice [9] was “well tolerated”.
